Measurements from patent US10100082B2, “Hexapeptide for neuroprotection against a β toxicity” (Council of Scientific and Industrial Research, priority 2016, dated 2018).
The star is where a group is joined. FITC = O=C1OC2(c3ccc(O)cc3Oc3cc(O)ccc32)c2ccc(NC(=S)*)cc21

How the values were obtained:
polymerized microtubules = assay: FITC-NV binding with microtubule at tubulin polymerization; details: FITC-NV during polymerization of alexa-568 labeled tubulin with GTP
Method: Hexapeptide NV Binding with Microtubule at Tubulin Polymerization
Mixture 1: Alexa Fluor 568-labeled tubulin (0.5 μL, 15 mg mL^−1, 65% labelling ratio), Tubulin (2 μL, 20 mg mL^−1), FITC-NV (0.5 μL, 1 mM), GTP (0.2 μL, […]) and BRB80 (46.8 μL; 80 mM PIPES, 1 mM EGTA; 1 mM MgCl2, pH adjusted to 6.8 by using concentrated KOH solution) were mixed on ice. The mixture was incubated for 30 min on 37° C. water bath.
Mixture 2: Taxol (0.4 μL, 1 mM) and BRB80 (180 μL) were mixed.
Final Mixture: After 30 min incubation 50 μL warmed mixture 2 was added into mixture 1. Then this mixture was separated in a table top centrifuge (7 min, 12000 rpm, Eppendorf 5810R bench-top centrifuge, rotor type F-34-6-38). The coloured pellet was resuspended in warm mixture 2. 10 μL resuspended solution of microtubule was placed on glass cover slip and imaged under inverted fluorescence microscope (NIKON Ti-U) in 40× magnification using ANDOR iXON3 camera.

[1] = system: neuronally differentiated PC12 cells; assay: Neuroprotection against anti-NGF toxicity (NGF deprivation), intact nuclear counting; assay type: cell-based, rat; details: higher concentrations of NV
Method: On the fifth day they were treated overnight with anti-NGF along with different doses of inhibitor NV (FIG. 4d). […] The cells were observed under the microscope on the day following treatment; survival was assessed by intact nuclear counting assay (FIG. 4d).
Rat pheochromocytoma cells (PC12) cells were cultured as described previously (ESI) in RPMI medium supplemented with 10% heat-inactivated horse serum (HS) and 5% heat-inactivated fetal bovine serum. Neuronal differentiation of these cells was induced by NGF (100 ng/mL) in medium containing 1% horse serum for 6 days before the treatment, as previously described.
The cell viability was checked by the intact nuclear counting method. This assay was performed as described previously. In brief, a detergent containing the buffer that dissolved only the plasma membrane was added to the cells, the nuclear membrane thus remained intact. The intact nuclei were then counted on a haemocytometer under a light microscope. The number of live cells was expressed as percentage of the total cell population.

amyloid beta = details: previous study; cited from earlier work
tau = details: previous study; cited from earlier work
tubulin = tubulin mix with GTP, 30 min at 37° C., 561 nm channel
Method: Hexapeptide ‘NV’-Tubulin Interaction Study on Biotin Micropatterned Surface
Biotin micropatterned surfaces were prepared as previously described method. A flow chamber of around 5 μL was built from one biotin-patterned glass surface and one poly-L-lysine (PLL)-PEG passivated counter glass, separated by two strips of double sticky tape (Tesa). Flow chamber was equilibrated with BRB80 and incubated with β-casein for 10 min followed by washing with 20 μL BRB80 for complete removal of unbound β-casein. 100 nM neutravidin was flowed into the flow chamber and incubated for 10 min followed by removal of excess neutravidin with 20 μL BRB80. […] Then, the flow chamber was filled with 18.5 μM tubulin mix (80:20 unlabeled tubulin and Alexa568 tubulin) in BRB80 supplemented with 3 mM GTP, 10 mM MgCl2, and an oxygen scavenger system (50 mM glucose, 1 mg mL^−1 glucose oxidase, and 0.5 mg mL^−1 catalase) on an ice cold metal block and placed to the TIRF microscope at 37° C. Then flow chamber was imaged using an IX-81 total internal reflection fluorescence (TIRF) microscope (Olympus) with a 60×TIRFM objective (Olympus; Hamburg, Germany) and an Andor iXon3 897 Camera. Control experiment was performed, following previously described method without immobilizing ‘Bio-NV’ on biotin micropatterned surface.

Substance: {FITC}-NAVSIQ-NH2 [FITC-NV]
- binding with polymerized microtubules (polymerized microtubules): binds with polymerized microtubules

Substance: H-NAVSIQ-NH2 [NV, NH2-NAVSIQ-NH2]
- toxicity to control cells [1]: showed toxicity to control cells

Substance: NH2-NAPVSIPQ-NH2 [NQ]
- inhibition of amyloid beta fibrillation in vitro (amyloid beta): inhibits amyloid beta fibrillation in vitro
- inhibition of tau hyper phosphorylation in vivo (tau): inhibit tau hyper phosphorylation in vivo

Substance: Biotin-NAPVSIPQ-NH2 [Biotin-NV]
- binding of tubulin to immobilized Biotin-NV on micropatterns (tubulin): localized binding of tubulin
